Source: patent US6451732B1, “Herbicidal compositions of glyphosate trimesium” (Syngenta, Limited, priority 1999, dated 2002)
Where two headings read alike, the source gives them in different places.

How the values were obtained:
[1] = tested on: glyphosate tolerant soybeans; settings: postemergence
Procedure: (§2) The soil was fortified with fertilizer (10-10-10) prior to seeding The compounds were dissolved in water and applied with a carrier volume of 200 L/ha. All treatments were replicated four times.
(§3) The pots were placed in a greenhouse and maintained under good growing conditions. The greenhouse evironmental systems provided the plants with natural and artificial lighting to attaim 12 hours of light per day. Day and night temperatures were maintained at 29° and 21° C. respectively.
(§4) Plants were grown to the V2 or 2 leaf stage prior to compound application. Plants were sprayed 30.5cm (12 inches) above the foliage with the spray solution as prepared for the pre-emergence test. Treated plants were then returned to a greenhouse and watered daily without wetting the foliage. Injury to plants was evaluated 5 days after treatment (“CDAT”) and 13 DAT. Injury was evaluated as percent control being the total injury to the plants due to all factors including: inhibited emergence, stunting, malformation, albinism, chlorosis, and other types of plant injury.

glyphosate tolerant corn = settings: postemergence
Procedure: as §2, §3, §4

[2] = tested on: glyphosate tolerant soybeans; test: Greenhouse postemergence injury to glyphosate tolerant soybeans, glyphosate trimesium and bentazon (Example 2)
Procedure: as §2, §3, §4

GLXMA P9294 = test: Field plot injury rating (Example 3); type: in vivo, glyphosate tolerant soybeans; settings: Glyphosate TMS 1.5 lb/acre, with ammonium sulfate
Text: (§1) In plots located in Champaign, Ill. (three replications), seeds of the following weed species were planted: Digitaria sanguinalis (“DIGSA”); Setaria faberi (“SETFA”); Setaria glauca (“SETLU”);Echinochloa crusgalli a crusgalli (“ECHCG”); Sorghum vulgare (“SORVU”); Sida spinosa (“SIDSP”); Ipomoea hederacea (“IPOHE”); Amaranthus retroflexus (“AMARE”); Xanthium strumarium (“XANST”); Helianthus annuns (“HELAN”) and Abutilon theophrasti (“ABUTH”). The plots were also planted with two varieties of glyphosate tolerant soybeans (“GLXMA P9294” and “GLXMA P9333”). When the soybeans had reached the 4-5 trifoliate stage, the plots were treated with glyphosate trimesium alone or glyphosate trimesium+bentazon, at the application rates indicated in Table 3. Injury to the species in each plot was tated 7 and 18 dats after application (DAA) of the glyphosate trimesium with or without bentazon and the results are shown in Table 3. The results shown in Table 3 are the mean of three replications.

GLXMA P9333 = test: Field plot injury rating (Example 3); type: in vivo, glyphosate tolerant soybeans; settings: Glyphosate TMS 1.5 lb/acre, with ammonium sulfate
Text: as §1

Sorghum vulgare (SORVU) = test: Field plot injury rating (Example 3); type: in vivo; settings: Glyphosate TMS 1.5 lb/acre, with ammonium sulfate
Text: as §1

[3] = tested on: Echinochloa crusgalli (ECHCG); test: Field plot injury rating (Example 3); type: in vivo; settings: Glyphosate TMS 1.5 lb/acre, with ammonium sulfate
Text: as §1

[4] = tested on: Ipomoea hederacea (IPOHE); test: Field plot injury rating (Example 3); type: in vivo; settings: Glyphosate TMS 1.5 lb/acre, with ammonium sulfate
Text: as §1

[5] = tested on: Amaranthus retroflexus (AMARE); test: Field plot injury rating (Example 3); type: in vivo; settings: Glyphosate TMS 1.5 lb/acre, with ammonium sulfate
Text: as §1

Sida spinosa (SIDSP) = test: Field plot injury rating (Example 3); type: in vivo; settings: Glyphosate TMS 1.5 lb/acre, with ammonium sulfate
Text: as §1

[6] = tested on: Abutilon theophrasti (ABUTH); test: Field plot injury rating (Example 3); type: in vivo; settings: Glyphosate TMS 1.5 lb/acre, with ammonium sulfate
Text: as §1

[7] = tested on: Helianthus annuns (HELAN); test: Field plot injury rating (Example 3); type: in vivo; settings: Glyphosate TMS 1.5 lb/acre, with ammonium sulfate
Text: as §1

[8] = tested on: Digitaria sanguinalis (DIGSA); test: Field plot injury rating (Example 3); type: in vivo; settings: Glyphosate TMS 1.5 lb/acre, with ammonium sulfate
Text: as §1

[9] = tested on: Xanthium strumarium (XANST); test: Field plot injury rating (Example 3); type: in vivo; settings: Glyphosate TMS 1.5 lb/acre, with ammonium sulfate
Text: as §1

Setaria faberi (SETFA) = test: Field plot injury rating (Example 3); type: in vivo; settings: Glyphosate TMS 1.5 lb/acre, with ammonium sulfate
Text: as §1

Setaria glauca (SETLU) = test: Field plot injury rating (Example 3); type: in vivo; settings: Glyphosate TMS 1.5 lb/acre, with ammonium sulfate
Text: as §1

[10] = Glyphosate trimesium 750 g/ha, Bentazon 0 g/ha
[11] = Glyphosate trimesium 1500 g/ha, Bentazon 0 g/ha
[12] = Glyphosate trimesium 3000 g/ha, Bentazon 0 g/ha

For `CC(C)N1C(=O)c2ccccc2NS1(=O)=O` [Bentazon, bentazon], which “Soybean injury (percent control) 5 DAT” value ([1]; TMS 0 g/ha, Bentazon 250 g/ha) is on record?
The value was 2%.

What about the “Soybean injury (percent control) 5 DAT” value ([1]; TMS 0 g/ha, Bentazon 500 g/ha) of the same compound?
Its value is 8%.

What about the “Corn injury (percent control) 5 DAT” value (glyphosate tolerant corn; TMS 0 g/ha, Bentazon 250 g/ha) of the same compound?
Its value is 0%.

And the “Corn injury (percent control) 13 DAT” value (glyphosate tolerant corn; TMS 0 g/ha, Bentazon 250 g/ha)?
Its value is 0%.

What about the “Corn injury (percent control) 5 DAT” value (glyphosate tolerant corn; TMS 0 g/ha, Bentazon 500 g/ha) of the same compound?
The value was 0%.

And the “Corn injury (percent control) 13 DAT” value (glyphosate tolerant corn; TMS 0 g/ha, Bentazon 500 g/ha)?
Its value is 0%.

What about the “Soybean injury (percent control) 5 DAT” value ([2]; Glyphosate trimesium 0 g/ha, Bentazon 4 g/ha) of the same compound?
Its value is 0%.

And the “Soybean injury (percent control) 5 DAT” value ([2]; Glyphosate trimesium 0 g/ha, Bentazon 8 g/ha)?
The value was 0%.

And the “Soybean injury (percent control) 5 DAT” value ([2]; Glyphosate trimesium 0 g/ha, Bentazon 16 g/ha)?
Its value is 0%.

And the “Soybean injury (percent control) 5 DAT” value ([2]; Glyphosate trimesium 0 g/ha, Bentazon 32 g/ha)?
Its value is 0%.

What about the “Soybean injury (percent control) 5 DAT” value ([2]; Glyphosate trimesium 0 g/ha, Bentazon 64 g/ha) of the same compound?
The value was 0%.

How did the “Injury GLXMA P9294 7 DAA” value (GLXMA P9294; 7 DAA) turn out when `C[S+](C)C.O=C([O-])CNCP(=O)(O)O` [Glyphosate trimesium, trimethylsulphonium salt of N-phosphonomethylglycine] was run?
The value was 8.

What about the “Injury GLXMA P9294 18 DAA” value (GLXMA P9294; 18 DAA) of the same compound?
The value was 9.

What about the “Injury GLXMA P9333 7 DAA” value (GLXMA P9333; 7 DAA) of the same compound?
Its value is 5.

What about the “Injury GLXMA P9333 18 DAA” value (GLXMA P9333; 18 DAA) of the same compound?
The value was 6.

And the “Injury SORVU 7 DAA” value (Sorghum vulgare (SORVU); 7 DAA)?
Its value is 93.

And the “Injury SORVU 18 DAA” value (Sorghum vulgare (SORVU); 18 DAA)?
The value was 100.

And the “Injury ECHCG 7 DAA” value ([3]; 7 DAA)?
The value was 67.

And the “Injury ECHCG 18 DAA” value ([3]; 18 DAA)?
The value was 94.

What about the “Injury IPOHE 7 DAA” value ([4]; 7 DAA) of the same compound?
Its value is 43.

And the “Injury IPOHE 18 DAA” value ([4]; 18 DAA)?
The value was 68.

And the “Injury AMARE 7 DAA” value ([5]; 7 DAA)?
The value was 100.

What about the “Injury AMARE 18 DAA” value ([5]; 18 DAA) of the same compound?
Its value is 100.

What about the “Injury SIDSP 7 DAA” value (Sida spinosa (SIDSP); 7 DAA) of the same compound?
The value was 60.

What about the “Injury SIDSP 18 DAA” value (Sida spinosa (SIDSP); 18 DAA) of the same compound?
Its value is 83.

What about the “Injury ABUTH 7 DAA” value ([6]; 7 DAA) of the same compound?
Its value is 40.

And the “Injury ABUTH 18 DAA” value ([6]; 18 DAA)?
The value was 80.

What about the “Injury HELAN 7 DAA” value ([7]; 7 DAA) of the same compound?
Its value is 99.

And the “Injury HELAN 18 DAA” value ([7]; 18 DAA)?
The value was 100.

And the “Injury DIGSA 7 DAA” value ([8]; 7 DAA)?
The value was 99.

What about the “Injury DIGSA 18 DAA” value ([8]; 18 DAA) of the same compound?
The value was 100.

And the “Injury XANST 7 DAA” value ([9]; 7 DAA)?
Its value is 99.

And the “Injury XANST 18 DAA” value ([9]; 18 DAA)?
Its value is 100.

And the “Injury SETFA 7 DAA” value (Setaria faberi (SETFA); 7 DAA)?
The value was 96.

And the “Injury SETFA 18 DAA” value (Setaria faberi (SETFA); 18 DAA)?
The value was 100.

What about the “Injury SETLU 7 DAA” value (Setaria glauca (SETLU); 7 DAA) of the same compound?
The value was 95.

What about the “Injury SETLU 18 DAA” value (Setaria glauca (SETLU); 18 DAA) of the same compound?
Its value is 100.

And the “Soybean injury (percent control) 5 DAT” value [2, 10]?
Its value is 13%.

What about the “Soybean injury (percent control) 13 DAT” value [2, 10] of the same compound?
Its value is 7%.

And the “Soybean injury (percent control) 5 DAT” value [2, 11]?
The value was 37%.

What about the “Soybean injury (percent control) 13 DAT” value [2, 11] of the same compound?
The value was 27%.

And the “Soybean injury (percent control) 5 DAT” value [2, 12]?
Its value is 58%.

What about the “Soybean injury (percent control) 13 DAT” value [2, 12] of the same compound?
The value was 35%.

What does the source list for `C[S+](C)C.[Cl-]` [TMS, trimethylsulphonium chloride]?
Soybean injury (percent control) 5 DAT ([1]; TMS 420 g/ha, Bentazon 0 g/ha): 15%; Soybean injury (percent control) 13 DAT ([1]; TMS 420 g/ha, Bentazon 0 g/ha): 13%; Soybean injury (percent control) 5 DAT ([1]; TMS 840 g/ha, Bentazon 0 g/ha): 24%; Soybean injury (percent control) 13 DAT ([1]; TMS 840 g/ha, Bentazon 0 g/ha): 18%; Corn injury (percent control) 5 DAT (glyphosate tolerant corn; TMS 420 g/ha, Bentazon 0 g/ha): 14%; Corn injury (percent control) 13 DAT (glyphosate tolerant corn; TMS 420 g/ha, Bentazon 0 g/ha): 48%; Corn injury (percent control) 5 DAT (glyphosate tolerant corn; TMS 840 g/ha, Bentazon 0 g/ha): 19%; Corn injury (percent control) 13 DAT (glyphosate tolerant corn; TMS 840 g/ha, Bentazon 0 g/ha): 60%
